Values quoted from earlier work in US20080108586A1, “COMBINATION THERAPY FOR HUMAN IMMUNODEFICIENCY VIRUS INFECTION” (Incyte Corporation, priority 2006, published 2008).

How the values were obtained:
human CCR5 = human CCR5 (Homo sapiens, UniProt P51681)
rhesus macaque CCR5 = rhesus macaque CCR5 (Macaca mulatta, UniProt P61813)

Sequence of human CCR5 (P51681 whole entry): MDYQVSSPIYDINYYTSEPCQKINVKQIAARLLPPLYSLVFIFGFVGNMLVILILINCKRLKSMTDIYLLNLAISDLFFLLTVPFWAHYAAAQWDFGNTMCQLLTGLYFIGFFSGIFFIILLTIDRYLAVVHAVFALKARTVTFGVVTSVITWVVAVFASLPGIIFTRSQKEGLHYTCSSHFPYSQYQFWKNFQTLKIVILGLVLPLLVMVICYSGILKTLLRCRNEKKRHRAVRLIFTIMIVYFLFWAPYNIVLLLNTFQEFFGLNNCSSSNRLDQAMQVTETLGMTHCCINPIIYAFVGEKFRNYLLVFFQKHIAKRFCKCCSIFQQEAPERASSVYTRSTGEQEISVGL

Structure (SMILES): Cc1ncnc(C)c1C(=O)N1CCC(C)(N2CCN([C@@H](C)c3ccc(C(F)(F)F)cc3)[C@@H](C)C2)CC1 [AD101, (4,6-dimethylpyrimidin-5-yl)(4-methyl-4-((S)-3-methyl-4-((S)-1-(4-(trifluoromethyl)-phenyl)ethyl)piperazin-1-yl)piperidin-1-yl)methanone]
- inhibition of HIV-1 entry via human CCR5 (human CCR5): inhibits
- inhibition of HIV-1 entry via rhesus macaque CCR5 (rhesus macaque CCR5): inhibits
